# Laboratory results from US4798844A, “Chemotherapeutant composition” (Shikoku Chemicals Corporation, priority 1987, dated 1989).
# Where a name gives a salt, the structure may show the parent alone.
# Legend:
# Aspergillus fumigatus = test: Antimicrobial activity to pathogenic true fungi (MIC); assay type: cell-based; conditions: Sabourauds agar medium, 25° C., 7 to 14 days
# Description: (§1) A true fungus shown in Table 1 was cultured in Sabourauds agar medium at 25° C. for 7 to 14 days, and the minimum inhibitory concentration (MIC value, μg/ml) was determined.
# Aspergillus niger = test: as above; assay type: cell-based; conditions: Sabourauds agar medium, 25° C., 7 to 14 days
# Description: as §1
# Candida albicans [1] = test: as above; assay type: cell-based; conditions: Sabourauds agar medium, 25° C., 7 to 14 days
# Description: as §1
# Microsporum gypseum = test: as above; assay type: cell-based; conditions: Nannizzia gypsea; Sabourauds agar medium, 25° C., 7 to 14 days
# Description: as §1
# [2] = tested on: Trichophyton mentagrophytes; test: as above; assay type: cell-based; conditions: Sabourauds agar medium, 25° C., 7 to 14 days
# Description: as §1
# Trichophyton rubrum = test: as above; assay type: cell-based; conditions: Sabourauds agar medium, 25° C., 7 to 14 days
# Description: as §1
# Trichophyton tonsurans = test: as above; assay type: cell-based; conditions: Sabourauds agar medium, 25° C., 7 to 14 days
# Description: as §1
# Bacillus subtilis = test: Antimicrobial activity to pathogenic bacteria (MIC, agar plate dilution); assay type: cell-based; conditions: Japanese Chemotherapeutic Association
# Description: (§2) The minimum inhibitory concentrations to pathogenic bacteria shown in Table 2 were determined by the agar plate dilution process according to the standard method of the Japanese Chemotherapeutic Association.
# Staphylococcus aureus = test: as above; assay type: cell-based; conditions: Japanese Chemotherapeutic Association
# Description: as §2
# Streptococcus faecalis = test: as above; assay type: cell-based; conditions: Enterococcus faecalis, Japanese Chemotherapeutic Association
# Description: as §2
# Streptococcus pyogenes = test: as above; assay type: cell-based; conditions: Japanese Chemotherapeutic Association
# Description: as §2
# [3] = Migration in blood after oral administration; assay type: in vivo; conditions: rat, oral 300 mg/kg; for Concentration in Blood: gum arabic suspension, compound bonded with small blood protein (fraction MW 10,000)
# Description: The compound obtained in Example 1 was orally administered at a dose of 300 mg/kg in the form of a suspension in gum arabic to a rat, and the change of the concentration in blood was examined by the high-speed liquid chromatography.
# Each value is the concentration of the compound bonded with a blood protein having a small molecular weight (fraction molecular weight=10,000).
# Candida albicans [4] = test: Curative effect to candidiasis; assay type: in vivo, mouse; conditions: after two days; for Survival Ratio: 1.4 hours after infection, control 0/3
# Description: A mouse was infected with Candida albicans, and when 1.4 hours had passed from the infection, the compound obtained in Example 1 was orally administered in the form of a suspension in gum arabic. After two days, the pharmaceutical effect was examined.
# [5] = tested on: Trichophyton mentagrophytes; test: Curative effect to trichophytosis; assay type: in vivo, guinea pig; conditions: for Number of Colonies in Skin Pieces after 3 days' stoppage of administration: 10 days, then 3 days stopped, control 3.4 × 10^3; for Number of Colonies in Skin Pieces after 10 days' administration: control 4.1 × 10^3
# From the text: A guinea pig was skin-infected with Trichophyton mentagrophytes, and after two days had passed from the infection, the compound obtained in Example 1 was orally administered in the form of a suspension in gum arabic once a day for 10 days and the pharmaceutical effect was examined. Then, the administraion of the compound was stopped for 3 days and the recovery state was examined.
# [6] = Acute toxicity (oral LD50); assay type: in vivo; conditions: mouse, in vivo, po, LD50 Value
# From the text: (§3) It is seen that the actue toxicity of the compound is very low.
# mouse = test: Acute toxicity (oral LD50); assay type: in vivo
# From the text: as §3
# skin = test: Primary irritation to skin; assay type: in vivo, rabbit
# From the text: It is seen that the compound is a non-irritating substance.
structure (smiles),measurement,setting,value
"O=C(C(=Cc1ccc(Cl)cc1Cl)n1ccnc1)c1ccc(Cl)cc1 [Example 1, 1-(4-chlorophenyl)-2-(1H-imidazolyl)-3-(2,4-dichlorophenyl)-2-propen-1-onehydrochloride]",MIC,Aspergillus fumigatus,3.12 µg/mL
same,MIC,Aspergillus niger,3.12 µg/mL
same,MIC,Candida albicans [1],< 6.25 µg/mL
same,MIC,Microsporum gypseum,< 1.25 µg/mL
same,MIC,[2],< 1.25 µg/mL
same,MIC,Trichophyton rubrum,< 1.25 µg/mL
same,MIC,Trichophyton tonsurans,< 1.25 µg/mL
same,MIC,Bacillus subtilis,3.12 µg/mL
same,MIC,Staphylococcus aureus,1.56 µg/mL
same,MIC,Streptococcus faecalis,3.12 µg/mL
same,MIC,Streptococcus pyogenes,3.12 µg/mL
same,Concentration in Blood,[3]; 0 hours,0 ng/mL
same,Concentration in Blood,[3]; 2 hours,1200 ng/mL
same,Concentration in Blood,[3]; 4 hours,2970 ng/mL
same,Concentration in Blood,[3]; 6 hours,9070 ng/mL
same,Concentration in Blood,[3]; 8 hours,4260 ng/mL
same,Concentration in Blood,[3]; 12 hours,5620 ng/mL
same,Concentration in Blood,[3]; 24 hours,1500 ng/mL
same,time to maximum concentration in blood,[3]; suspension in gum arabic,within several hours
same,Survival Ratio,Candida albicans [4]; 50 mg/kg oral,1/3
same,Number of Living Cells in Kidney of Survivor Mouse,Candida albicans [4]; 50 mg/kg oral,substantially annihilated
same,Survival Ratio,Candida albicans [4]; 100 mg/kg oral,2/3
same,Number of Colonies in Skin Pieces after 3 days' stoppage of administration,[5]; 50 mg/kg oral once a day,annihilated
same,Number of Colonies in Skin Pieces after 10 days' administration,[5]; 50 mg/kg oral once a day,annihilated
same,Number of Colonies in Skin Pieces after 3 days' stoppage of administration,[5]; 100 mg/kg oral once a day,annihilated
same,Number of Colonies in Skin Pieces after 10 days' administration,[5]; 100 mg/kg oral once a day,annihilated
same,LD50,[6],2950 mg/kg
same,LD50 Value,"mouse; in vivo, po",3100 mg/kg
same,acute toxicity,"mouse; oral, in words",very low
same,primary irritation to skin,skin; in words,non-irritating
same,Primary Irritation Ratio,"skin; rabbit, coating concentration 100%",0.72
